For test [1], the system named is TNF-α production by human proximal tubule cells. Put plainly: LC-induced TNF-α production by renal tubule cells, ELISA. Format: cell-based. How it is done: TNF-α concentrations were determined by ELISA.
Varying doses of dexamethasone, PACAP38, MAPK kinase inhibitor (U0126), or PDTC were added to renal tubule cell cultures along with 50 μM LC to determine the effects on LC-induced TNF-α production, as measured by ELISA (FIG. 4).
(In general: In an ELISA, binding on a coated surface is turned into a signal by an enzyme label.)

Test [2] concerns p38 MAPK in human proximal tubule cells. Kind of test: LC-induced p38 MAPK activation, ELISA for phosphorylated p38 MAPK. It is filed as cell-based. The source says: Cytokine production may depend upon activation (phosphorylation) of p38 MAP kinase (stress-activated protein kinase 2a) isoforms.
Test [3] has as its system IL-6 production by human proximal tubule cells. Put plainly: LC-induced IL6 production by renal tubule cells, ELISA. It is filed as cell-based. Conditions: for magnitude of IL6 suppression compared with dexamethasone and SB202190: 10^−9 M PACAP vs 10^−9 M dexamethasone or 10 μM SB202190. How it is done:
The overproduction of IL6 by neoplastic cells is strongly associated with the growth of multiple myeloma. Kawano M, et al. Nature. 332: 83 (1988). Varying doses of PACAP38, dexamethasone, or p38 MAPK kinase inhibitor (SB202190) were added to renal tubule cell cultures along with 50 μM LC to determine the effects on LC-induced IL6 production, as measured by ELISA (FIG. 11).

For test [4], the system named is ERK1/2 in human proximal tubule cells. Kind of test: LC-induced activation of ERK1/2, phospho-ERK1/2 ELISA. The conditions noted are these: dexamethasone 10^−7 M, PACAP38 10^−9 M; 50 μM LC, 3 days. It is filed as cell-based. How it is done:
The ERK-type MAP kinases (ERK1 and ERK2 or, collectively, ERK1/2) are activated by phosphorylation. Evidence of such activation is visualized by antibody detection techniques, using antibody specific for the phosphorylated forms of ERK1/2. […] ERK1/2 activation was determined by ELISA.

In test [5] the test system is NFκB p50 subunit in human proximal tubule cells. Put plainly: LC-induced activation of NFκB p50 subunit, ELISA. It is filed as cell-based. The conditions noted are these: dexamethasone 10^−7 M, PACAP38 10^−9 M; 50 μM LC, 3 days. As for the experimental part:
Human renal tubule cells in vitro were incubated with 50 μM LC for 3 days in the presence or absence of dexamethasone or PACAP38, and assayed by ELISA for activation of NFκB subunits (FIGS. 6 & 7). […] A human Raji cell line (B lymphocyte, Burkitt's lymphoma) was used for positive controls.

Test [6] concerns NCI-H929 human myeloma cell line. Put plainly: Myeloma cell growth, colorimetric BrdU incorporation. Format: cell-based. As for the experimental part:
A human myeloma cell line (NCI-H929), which produced the lambda (λ) light chains used supra, were grown for 3 days in media containing non-inactivated media, and in the presence or absence of dexamethasone or PACAP38 (FIG. 8). Cell growth was determined by a colorimetric assay that measured the degree of 5-bromo-2-deoxyuridine (BrdU) incorporation by the cells. […] The therapeutic actions of dexamethasone in the treatment of multiple myeloma are attributed to stimulation of apoptosis.
Background: Dividing cells build labelled thymidine or BrdU into new DNA.

The test system of test [7] is SV40-immortalized human renal proximal tubule cell cultures. Put plainly: Immunoglobulin light chain (LC)-induced damage of human renal tubule cells: morphology and survival.
Experimental: SV40-immortalized human renal proximal tubule cell cultures were incubated with immunoglobulin light chains (LC) at 50 μM for 3 days (FIG. 2).
The target in test [8] is T1, PAC1-R (type I PACAP receptor) (Homo sapiens, UniProt P41586).
T1 sequence (P41586 21-468): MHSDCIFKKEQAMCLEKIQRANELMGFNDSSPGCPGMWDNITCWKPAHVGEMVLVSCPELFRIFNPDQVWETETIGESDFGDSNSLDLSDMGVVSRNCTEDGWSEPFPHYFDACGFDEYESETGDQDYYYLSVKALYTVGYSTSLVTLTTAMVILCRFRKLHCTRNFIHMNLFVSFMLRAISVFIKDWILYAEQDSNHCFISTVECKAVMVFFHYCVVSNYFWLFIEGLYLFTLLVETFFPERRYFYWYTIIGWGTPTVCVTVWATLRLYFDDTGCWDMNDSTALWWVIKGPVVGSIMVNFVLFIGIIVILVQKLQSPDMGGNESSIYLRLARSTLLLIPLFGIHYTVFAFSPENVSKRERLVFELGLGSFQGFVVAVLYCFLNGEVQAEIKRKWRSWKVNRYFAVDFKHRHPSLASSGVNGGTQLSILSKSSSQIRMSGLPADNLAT
Conditions: cited from earlier work.

Several values for one entry are separate records, joined by “and”; a condition that tells them apart may be missing. Identical values can stand only once. Entries after “also recorded” stand apart in the source; their conditions may differ. Where no end group is shown, it is not given here.

Regarding `S=C(S)N1CCCC1` [PDTC, pyrrolidine dithiocarbamate, reference compound], the “suppression of LC-induced TNF-α production” value in test [1] (PDTC 0.125 μM and 12.5 μM, both levels) is listed as “completely suppressed”.
`Oc1ccc(-c2nc(-c3ccncc3)c(-c3ccc(F)cc3)[nH]2)cc1` [SB202190, reference compound]: the “reduction of p38 MAPK activation” value in test [2] (SB202190 10 μM) is given as “reduction produced by 10 μM SB202190”.
For `N#CC(=C(/N)Sc1ccccc1N)/C(C#N)=C(\N)Sc1ccccc1N` [U0126, reference compound], the “suppression of LC-induced TNF-α production” value in test [1] (U0126 high dose) is listed as “completely suppressed”.
Regarding `C[C@@H]1C[C@H]2[C@@H]3CCC4=CC(=O)C=C[C@]4(C)[C@@]3(F)[C@@H](O)C[C@]2(C)[C@@]1(O)C(=O)CO` [dexamethasone, reference compound], in test [1] (50 μM LC), the “concentration achieving maximal suppression of TNF-α production” value is 10^−5 M, the “concentration giving comparable magnitude of TNF-α suppression (dexamethasone vs PACAP38)” value was 10^−9 M and the “concentrations showing comparable activity in suppressing LC-induced TNF-α production (pair used in FIGS. 5-7)” value is listed as 10^−7 M.
Consider “PACAP: pituitary adenylate cyclase activating polypeptide; exists as PACAP38 and PACAP27; in Example 8 stands for PACAP38”, for which the “magnitude of IL6 suppression compared with dexamethasone and SB202190” value in test [3] is recorded as “greater than that observed with either 10^−9 M dexamethasone or 10 μM SB202190”.
For “PACAP[1-38]-NH2 (HSDGIFTDSYSRYRKQMAVKKYLAAVLGKRYKQRVKNK-NH2) [PACAP38]”, in test [1] (50 μM LC), the “concentration achieving maximal suppression of TNF-α production” value was 10^−9 M and 10^−7 M; the “concentration giving comparable magnitude of TNF-α suppression (dexamethasone vs PACAP38)” value is on record as 10^−13 M; the “concentrations showing comparable activity in suppressing LC-induced TNF-α production (pair used in FIGS. 5-7)” value was 10^−9 M. Besides, the “suppression of LC-induced TNF-α production at a single concentration” value in test [1] (PACAP38 10^−9 M) is reported as “dramatic suppression”. The “suppression of LC-induced TNF-α production” value in test [1] (varying doses, 50 μM LC, 72 hours) was “suppressed by both dexamethasone and PACAP38 in a dose-dependent manner”. For the same compound, the “suppression of LC-induced ERK1/2 activation” value in test [4] was “Neither dexamethasone nor PACAP38 suppressed ERK1/2 MAPK activation; also recorded: the difference was not statistically significant; also recorded: neither dexamethasone nor PACAP38 suppressed light chain-induced ERK1/2 activation significantly”. Besides, the “suppression of LC-induced NFκB p50 subunit activation” value in test [5] is “significantly suppressed NFκB p50 activation; also recorded: suppressed by both dexamethasone and PACAP38”. Also, in test [6] (3 days), the “concentration of maximal suppression of tumor cell growth” value was 10^−7 M and the “lowest concentration at which tumor cell growth tended to be suppressed” value is reported as 10^−13 M. Further, in test [6] (3 days, media with non-inactivated serum), the “suppression of myeloma cell growth” value is on record as “suppressed growth of myeloma cells in cultures with approximately the same efficacy; also recorded: suppressed cell growth significantly; also recorded: dose-dependent suppression of myeloma cell growth at concentrations significantly lower than dexamethasone”. For the same compound, the “growth suppressed at levels as low as” value in test [6] (media containing non-inactivated serum) is reported as 10^−11 M. Also, the “magnitude of IL6 suppression compared with dexamethasone and SB202190” value in test [3] is listed as “significantly more effective at suppressing IL-6 production than dexamethasone”. Moreover, the “suppression of LC-stimulated IL6 production” value in test [3] (varying doses, 50 μM LC) is “significant suppression; also recorded: suppressed by both dexamethasone and PACAP38 in a dose-dependent manner”. Moreover, in test [2] (10 nM PACAP38 vs 10 μM SB202190), the “reduction of p38 MAPK activation compared with SB202190 and dexamethasone” value is given as “comparable to reduction produced by 10 μM SB202190; also recorded: comparable to that of the specific p38 MAPK inhibitor itself; also recorded: significantly more effective at comparable doses”. Moreover, the “reduction of LC-induced p38 MAPK activation” value in test [2] (varying doses, 50 μM LC, 3 days) was “suppressed activation of p38 MAPK; also recorded: reduced significantly, and in a dose-dependent manner; also recorded: suppressed p38 MAPK activation in a dose-dependent manner”. Moreover, the “effect on LC-induced cell damage (FIG. 2C)” value in test [7] (PACAP38 10 nM, LC 50 μM, 3 days) is reported as “dramatically attenuated”. In addition, in test [7] (PACAP38 10^−9 M, LC 50 μM, 3 days), the “effect on LC-induced morphological changes (cell shrinkage, necrosis, loss of cell-cell adhesion) and survival” value was “prevented the LC-induced changes; also recorded: dramatic preservation of renal tubule cell survival and morphology”. The “cell morphology with compound alone” value in test [7] (PACAP38 alone, 10^−9 M, no LC) is “did not cause any alteration of cell morphology; also recorded: did not alter the human renal tubule cell morphology”.
On to vasoactive intestinal peptide [VIP], for which, in test [8], the “binding to PAC1-R” value is given as “does not bind”.

(Values after patent publication US9006181B2 (The Administrators of the Tulane Educational Fund, priority 2004, dated 2015).)
